PubChem BioAssay AID1418 (Emory University Molecular Libraries Screening Center, 2008)
The source made the active and inactive calls. No rule for the calls is given here.

Biological target: Induced myeloid leukemia cell differentiation protein Mcl-1 (Homo sapiens) (UniProt Q07820)
Assay: blockers of Bid binding to Mcl-1 – biochemical, TR-FRET, dose response (AID 1418)
Settings: Mcl-1/Bid peptide binding, TR-FRET (europium/Dy647), 2 hr

Sequence of Induced myeloid leukemia cell differentiation protein Mcl-1 (Homo sapiens) (Q07820 whole entry, looked up): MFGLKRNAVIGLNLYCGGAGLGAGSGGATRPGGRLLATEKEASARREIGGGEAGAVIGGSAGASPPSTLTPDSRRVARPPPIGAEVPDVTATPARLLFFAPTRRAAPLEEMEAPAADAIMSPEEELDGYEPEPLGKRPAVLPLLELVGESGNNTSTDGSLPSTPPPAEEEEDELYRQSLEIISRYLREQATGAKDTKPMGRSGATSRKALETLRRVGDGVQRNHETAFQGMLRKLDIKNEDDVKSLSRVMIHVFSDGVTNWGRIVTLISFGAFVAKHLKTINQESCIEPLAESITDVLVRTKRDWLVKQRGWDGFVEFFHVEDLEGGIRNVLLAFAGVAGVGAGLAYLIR

Row | Compound | IC50
1 | Cc1cc(C)cc(N(CC(=O)NC2CCC(C)CC2)S(=O)(=O)c2c(C)noc2C)c1 (stereo not given) | > 54 µM (inactive)
2 | Cc1cc(=O)c2ccc(C(F)(F)F)cc2[nH]1 | > 54 µM (inactive)
3 | COc1cc(/C=C2\SC(=O)N(Cc3ccc(Cl)cc3)C2=O)cc([N+](=O)[O-])c1O | 16.9 µM
4 | COc1ccc2nc(NC(=O)c3cccc(-c4cc5ccccc5oc4=O)c3)sc2c1 | 0.89 µM
5 | CC(NC(=O)Cn1cnc2c1c(=O)n(C)c(=O)n2C)c1ccccc1 (stereo not given) | > 54 µM (inactive)
6 | Cc1sc(NC(=O)c2ccccc2)c(C(=O)N2CCN(C)CC2)c1C | > 54 µM (inactive)
7 | COc1ccc(-n2cccc2/C=C2\C(=N)N3N=C(c4ccco4)SC3=NC2=O)cc1 | 3.22 µM
8 | O=C(Nc1cccc(-c2csc(-c3ccccc3)n2)c1)c1cccs1 | > 54 µM (inactive)
9 | CC(=O)c1c(N=CN(C)C)nc(C)nc1-c1ccccc1 | > 54 µM (inactive)
10 | CN(C)CC(O)CN(c1ccccc1)c1ccccc1 (stereo not given) | > 54 µM (inactive)
11 | CCOc1ccc(NC(=O)CC2C(=O)N(c3ccc(OC)cc3)C(=S)N2Cc2ccccn2)cc1 (stereo not given) | > 54 µM (inactive)
12 | O=C(O)CCCN1C(=O)/C(=C/c2cn(-c3ccccc3)nc2-c2cccs2)SC1=S | 6.58 µM
13 | CC(C)(C)CC(=O)O/N=C(\N)c1ccncc1 | > 54 µM (inactive)
14 | CC(Oc1ccc(Cl)cc1Cl)C(=O)N(C)c1ccccc1 (stereo not given) | > 54 µM (inactive)
15 | O=C(O)COc1ccccc1C(Nc1cccnc1)c1cc(Cl)c2cccnc2c1O (stereo not given) | 2.52 µM
16 | CN(C)S(=O)(=O)c1cccc(-c2nn(-c3ccccc3)cc2/C=C2\SC(=S)NC2=O)c1 | 9.99 µM
17 | CC(=O)C1=C(C)NC(SCC(N)=O)=C(C#N)C1c1cccnc1 (stereo not given) | > 54 µM (inactive)
18 | N=C1/C(=C\c2ccc(-c3ccc(C(=O)O)cc3)o2)C(=O)N=C2SC=C(c3ccccc3)N12 | 2.76 µM
19 | CCOC(=O)c1cc(-c2ccccc2)n(CC(=O)N2CCCC2)c1C | > 54 µM (inactive)
20 | O=C1c2ccccc2C(=O)N1Cc1nc2ccccc2c(=O)n1-c1cccnc1 | > 54 µM (inactive)
21 | Cc1cccc(CN2CCc3c(OCC(=O)NCc4ccco4)cccc3C2=O)c1 | > 54 µM (inactive)
22 | COCC(O)CSc1nc(C)[nH]c1[N+](=O)[O-] (stereo not given) | > 54 µM (inactive)
23 | CN1/C(=C\C=C2C(=O)NC(=S)NC2=O)C(C)(C)c2ccccc21 | > 54 µM (inactive)
24 | CC(C)C(C(=O)O)N1C(=O)/C(=C/C=C/c2ccco2)SC1=S (stereo not given) | 2.35 µM

Row | Compound | IC50
25 | CCc1c(C(=O)Nc2cc(C)ccc2OC)[nH]c(C)c1C(C)=O | > 54 µM (inactive)
26 | CC(=O)c1ccc(NC(=O)C(C)n2c3ccccc3c3nc(=O)cc(C)n32)cc1 (stereo not given) | > 54 µM (inactive)
27 | O=C(NC1CCCCC1)C(c1ccc2ncccc2c1)N(Cc1ccccc1)C(=O)c1ccc2c(c1)OCCO2 (stereo not given) | > 54 µM (inactive)
28 | COc1ccc2nc(N3C(=O)/C(=C/c4ccc(Cl)cc4)NC3=S)sc2c1 | 1.75 µM
29 | COc1ccc(N/C=C2\C(=O)CCc3c2oc2cc(Cl)c(O)c(Cl)c32)cc1 | 0.79 µM
30 | CC(/C=C1\SC(=S)N(CCCC(=O)Nc2ccc(C(=O)O)c(O)c2)C1=O)=C\c1ccccc1 | 3.49 µM
31 | O=c1c2cnn(-c3ccccc3)c2nc(-c2cccs2)n1-c1cccc(Cl)c1 | > 54 µM (inactive)
32 | CCCCCCn1c(O)c(C=NCCN2CCOCC2)c(=O)[nH]c1=O | > 54 µM (inactive)
33 | CNc1ccc(Br)cc(C(=O)/C=C/c2cccc(Cl)c2Cl)c1=O | 3.46 µM
34 | COc1cc(CNc2ccc(O)cc2)cc(Br)c1OCc1ccccc1F | > 54 µM (inactive)
35 | CCc1cc(=O)oc2cc3occ(-c4ccc(OC)c(F)c4)c3cc12 | > 54 µM (inactive)
36 | Cc1ccccc1NCC(=O)N/N=C/C(Br)=C/c1ccccc1 | > 54 µM (inactive)
37 | Cc1ccnc(N/C=C(\C#N)c2nc(-c3cccc(Br)c3)cs2)c1 | 0.79 µM
38 | Cc1nnc(SCc2cc(=O)oc3ccc4ccccc4c23)n1Cc1ccccc1 | > 54 µM (inactive)
39 | CN(C)c1ccnc2sc(C(N)=O)c(N)c12 | > 54 µM (inactive)
40 | OCC1CCCN(c2nc(CN3CCCCC3)nc3scc(-c4ccccc4)c23)C1 (stereo not given) | > 54 µM (inactive)
41 | O=C(Nc1ccccn1)c1ccc([N+](=O)[O-])cc1Cl | > 54 µM (inactive)
42 | Cc1csc(CCc2nc(C)cs2)n1 | > 54 µM (inactive)
43 | COc1ccc(Nc2nc(C)c3ccccc3n2)cc1 | > 54 µM (inactive)
44 | O=C1Nc2ccccc2/C1=N/N=C/c1ccc(-c2ccc([N+](=O)[O-])cc2)o1 | 0.59 µM
45 | Cc1sc2ncnc(OCC(=O)Nc3ccc4c(c3)OCCO4)c2c1C | > 54 µM (inactive)
46 | CC1(C)Oc2ccc3ccc(=O)oc3c2C[C@H]1O | > 54 µM (inactive)
47 | O=C1CSC(c2cccnc2)N1c1ccc(Cl)cc1 (stereo not given) | > 54 µM (inactive)
48 | C#CCOCCOCCOCCNc1nc(N2CCN(C(=O)[C@H](Cc3ccc(O)cc3)n3cc([C@@H](N)C(C)CC)nn3)CC2)nc(N2CCN(C(=O)[C@H](Cc3cc4ccccc4[nH]3)n3cc([C@@H](N)C(C)CC)nn3)CC2)n1 (stereo not given in full) | 0.82 µM

Row | Compound | IC50
49 | C#CCOCCOCCOCCNc1nc(N2CCN(C(=O)C(Cc3ccc(O)cc3)n3cc(C(N)CC(C)C)nn3)CC2)nc(N2CCN(C(=O)C(Cc3cc4ccccc4[nH]3)n3cc(C(N)Cc4ccc(O)cc4)nn3)CC2)n1 (stereo not given) | > 54 µM (inactive)
50 | Cc1cccc2c3nc4ccccc4nc3n(CCCN3C(=O)c4ccccc4C3=O)c12 | > 54 µM (inactive)
51 | C=CCc1cccc2cc(C(=O)Nc3ccc(S(=O)(=O)Nc4nnc(CC)s4)cc3)c(=O)oc12 | > 54 µM (inactive)
52 | C/C(=N\NC(=O)c1cc(-c2cccc([N+](=O)[O-])c2)n[nH]1)c1ccccc1O | 29 µM
53 | O=C(Oc1cccc(N2C(=O)C3C4c5ccccc5C(c5ccccc54)C3C2=O)c1)c1ccco1 (stereo not given) | > 54 µM (inactive)
54 | Cc1ccc(-n2cccc2/C=C2\C(=N)N3N=C(c4ccco4)SC3=NC2=O)cc1 | 3.46 µM
55 | Cn1nc(-c2ccc(Cl)cc2)c2cc(C(=O)NCCN3CCOCC3)sc21 | > 54 µM (inactive)
56 | O=C(NCc1cccnc1)c1cc2nc(-c3ccc4c(c3)OCO4)cc(C(F)(F)F)n2n1 | > 54 µM (inactive)
57 | COc1ccc2[nH]c3c4c(ccc3c2c1)C(=O)C=CC4=O | 2.51 µM
58 | CCOc1ccc(N2C(=O)c3cccnc3C2Nc2ccc(F)cc2)cc1 (stereo not given) | > 54 µM (inactive)
59 | O=C(O)c1cccc(-n2cccc2/C=C2/NC(=O)N(c3ccc(Cl)cc3)C2=O)c1 | 0.53 µM
60 | O=S(=O)(NCc1ccccc1)c1cccc(S(=O)(=O)N2CCOCC2)c1 | > 54 µM (inactive)
61 | NC(=S)n1[nH]c(-c2ccc([N+](=O)[O-])cc2)c(N=Nc2ccccc2[N+](=O)[O-])c1=O | 3.26 µM
62 | O=C(CN1C(=O)S/C(=C\c2ccc(Cl)cc2)C1=O)NNC(=O)c1ccccc1O | 7.45 µM
63 | O=C(CSc1nc2ccccc2c2nc3ccccc3n12)NCc1ccco1 | 2.5 µM
64 | CCNc1ccc2c(Cl)cc(=O)oc2c1 | > 54 µM (inactive)
65 | CN1C(=S)N(c2cccnc2)C(=O)/C1=C\c1ccc(N(C)C)cc1 | 9 µM
66 | CC(=O)Nc1cccc(NC(=O)Nc2ccc(C(C)=O)cc2)c1 | > 54 µM (inactive)
67 | COc1ccccc1CCc1nnc(CCC(=O)NC(C)Cc2cccnc2)o1 (stereo not given) | > 54 µM (inactive)
68 | O=C1C(=Cc2cccn2-c2ccccc2)C(=O)c2ccccc21 | 2.58 µM
69 | C#CCOCCOCCOCCNc1nc(N2CCN(C(=O)[C@H](Cc3cc4ccccc4[nH]3)n3cc([C@@H](N)C(C)CC)nn3)CC2)nc(N2CCN(C(=O)[C@H](CCCCN)n3cc([C@@H](N)CC(C)C)nn3)CC2)n1 (stereo not given in full) | 16.9 µM
70 | C/C(=N/NC(=O)c1cc(-c2cccc([N+](=O)[O-])c2)n[nH]1)c1ccc(Cl)cc1 | 2.27 µM
71 | O=c1oc2c(O)c(O)cc3c(=O)oc4c(O)c(O)cc1c4c23 | 0.57 µM
72 | COc1ccccc1NC(=O)c1sc2ncn(Cc3ccc(C)cc3)c(=O)c2c1C | 7.75 µM

Row | Compound | IC50
73 | Cc1ccc(-c2nn(CC(=O)NCc3cc(-c4nn(C)c(=O)c5ccccc45)ccc3C)c(=O)c3ccccc23)cc1 | 0.85 µM
74 | COc1cc(OC)cc(C(=O)Nc2ccc(-c3nc4ccccc4o3)c(O)c2)c1 | 3.61 µM
75 | Nc1nc(SCc2ccc([N+](=O)[O-])cc2)nc2nc3c(cc12)CCCC3 | > 54 µM (inactive)
76 | O=C(N/N=C/c1cccc([N+](=O)[O-])c1)c1cc2c(ccc3ccccc32)o1 | 1.64 µM
77 | COC(=O)c1ccc(COC(=O)c2ccc(CS(=O)(=O)c3ccc(C)cc3)cc2)cc1 | 1.3 µM
78 | CCOC(=O)c1c(NC(=O)CN(C)C)sc(C(=O)N(CC)CC)c1C | > 54 µM (inactive)
79 | CC(C)n1c(SCC(=O)Nc2ccc3c(c2)OCO3)nc2c1c(=O)n(C)c(=O)n2C | > 54 µM (inactive)
80 | Cc1cc(/C=N/NC(=O)c2cccs2)c(C)n1-c1ccccc1 | > 54 µM (inactive)
81 | O=C(N=Nc1c(O)[nH]c2ccc([N+](=O)[O-])cc12)c1cc(-c2ccccc2Cl)nc2ccccc12 | 0.81 µM
82 | NC(=O)c1cccn1-c1ncc(C(F)(F)F)cc1Cl | > 54 µM (inactive)
83 | COc1ccc(Cl)cc1C(Nc1cccnc1)c1ccc2cccnc2c1O (stereo not given) | 0.62 µM
84 | O=C(Oc1ccc(Nc2ncnc3ccccc23)cc1)c1cccnc1 | > 54 µM (inactive)
85 | Cn1c(CSc2nc3ccccc3s2)nnc1SCC(=O)NCc1cccnc1 | > 54 µM (inactive)
86 | CC1C(=O)CCN(C(C)C)C1C (stereo not given) | > 54 µM (inactive)
87 | Cc1ccc(COc2ccc(C(=O)NN)cc2)cc1 | > 54 µM (inactive)
88 | O=C(Nc1ccc2oc(=O)ccc2c1)c1ccc(-c2cccc([N+](=O)[O-])c2)o1 | 0.65 µM
89 | COCCn1c(SCC(=O)NC(=O)NCc2ccccc2)nc2ccccc21 | > 54 µM (inactive)
90 | O=c1c2cc(Cl)ccc2nc(-c2ccccc2Cl)n1O | > 54 µM (inactive)
91 | CCOC(=O)c1c(C)oc2cc(Br)c(OC(=O)N3CCOCC3)cc12 | > 54 µM (inactive)
92 | COc1ccc(-n2c(=O)cc(N3CCOCC3)[nH]c2=O)cc1 | > 54 µM (inactive)
93 | N#Cc1ccccc1Cn1c(-c2cscn2)nc2ccccc21 | > 54 µM (inactive)
94 | Cc1ccc(C)c(C(=O)COC(=O)CCCC(=O)Nc2cc(C(F)(F)F)ccc2Cl)c1 | > 54 µM (inactive)
95 | O=C(/C=C/c1cccc([N+](=O)[O-])c1)Nc1ccc(NC(=O)c2cccs2)cc1 | 10.6 µM
